According to patent US4191770A, “N1 -acyl-N2 -phenyldiaminopropanols and pharmaceutical compositions thereof” (Kali-Chemie Pharma GmbH, priority 1977, dated 1980):
Counter-ions that a name gives are not always drawn.

How the values were obtained:
[1] = test system: indomethacine induced ulcers; experiment: Effectiveness against indomethacine-induced ulcers in the rat; format: in vivo, rats; conditions: for inhibition in vivo at 150 mg/kg: dosage 150 mg/kg p.o.; for inhibition in vivo at 75 mg/kg: dosage 75 mg/kg p.o.; for inhibition in vivo at 68 mg/kg: dosage 68 mg/kg p.o.
Protocol: 2. Effectiveness against indomethacineinduced ulcers in the rate (Modified test procedure according to
To at least 6 male rats, having a body-weight of from 170 to 220 g, dosages of the test compounds are administered orally in an amount of 0.5 ml of a suspension medium per 100 g animal body-weight. The animals of the blank control group receive the corresponding amount by volume of the suspension medium only. One hour after application of the test compounds, a dosage of 20 mg per kg of indomethacine contained in an amount of 0.5 ml of a suspension per 100 g animal body-weight, are orally applied to each animal for producing ulcers. 24 hours after the application of indomethacine, the animals are sacrificed.
The mean value and the standard deviation of the numbers of ulcers is calculated, and subsequently the inhibiting activity of the test compounds and a standard compound are calculated as percent inhibition compared with the blank control group.

[2] = test system: secretion in the stomach; experiment: Effect on the secretion in the stomach of narcotized rats (determination of the pH-value); format: in vivo; conditions: for inhibition in vivo at 300 mg/kg: po, dosage 300 mg/kg p.o., narcotized rats, acetylcholine control = 100
Protocol: 3. Effect on the secretion in the stomach of narcotized rats (determinationof the pH-value)
The test is performed on narcotized (urethane narcosis) male rats, having a body-weight of 200-230 g. For this purpose N/4000-sodium hydroxide solution is perfused into the stomachs of rats at a rate of 1 ml per minute by means of a cardia- and pylorus-catheter. The pH value of the perfusate, which leaves the stomach by way of the pylorus catheter, is determined by means of a one-rod measuring system, and is continuously registered.
In order to perform a comparative control test, after a pre-run period of 20 minutes, 10 mg per kg of acetylcholine are applied intraperitoneously. The resulting comparative control value is defined as being 100.
For evaluation, the surface-integral is calculated numerically with the aid of the rule of Simpson. The degree of inhibition of the secretion is calculated from the difference between the surfaces before and after the application of the test compound.

[3] = in vivo; conditions: mouse, po, single dose p.o., unfed NMRI mice, 7 days, read-out: Toxicity LD50 p.o.
Protocol: The acute 7-day-toxicity is determined after a single application per os in white NMRI-mice which had not been fed. The calculation of the LD50 is carried out by probitanalysis by means of electronic data processing (see L. Cavalli-Sforza, Gustav Fischer-Verlag, Stuttgart (1964), Grundbegriffe der Biometrie, p. 153).

[4] = at a low dosage, footnote of Table I
[5] = Rattus norvegicus, po, 1 h before 20 mg/kg indomethacine, 24 h

| Structure (SMILES) | inhibition in vivo at 150 mg/kg [1, 5] | inhibition in vivo at 300 mg/kg ([2]; Rattus norvegicus) | LD50 at 168 h [3] | inhibition in vivo at 75 mg/kg [1, 5] | further results |
| --- | --- | --- | --- | --- | --- |
| CN1[C@@H]2CC[C@H]1C[C@@H](OC(=O)C(CO)c1ccccc1)C2 (stereo partly shown) [A, atropine sulfate, reference compound] |  |  |  |  | inhibition in vivo at 12 mg/kg ([1]; Rattus norvegicus, po, dosage 12 mg/kg p.o., 1 h before 20 mg/kg indomethacine, 24 h): 26%; effect on the ulcer (in words) [1, 4]: does not have a sufficiently; inhibition in vivo at 0.5 mg/kg ([2]; Rattus norvegicus, ip, read-out: Inhibition of secretion in the stomach, % inhibition): 100%; inhibition of the secretion in the stomach (in words) [2, 4]: strong inhibition |
| CC(=O)NCC(O)CN(C)c1ccc(Cl)cc1 (stereo not shown) [Compound 1, N1-acetyl-N2-methyl-N2-(4-chlorophenyl)-1,3-diaminopropan-2-ol] | 33% | 0% | 2260 mg/kg |  |  |
| CCCCCC(=O)NCC(O)CN(C)c1ccc(F)cc1 (stereo not shown) [Compound 2, N1-hexanoyl-N2-methyl-N2-(4-fluorophenyl)-1,3-diaminopropan-2-ol] | 44% | 0% | 4320 mg/kg |  |  |
| CCCCCCCCCCCCCCCC(=O)NCC(O)CN(C)c1ccc(Cl)cc1 (stereo not shown) [Compound 3, N1-hexadecanoyl-N2-methyl-N2-(4-chlorophenyl)-1,3-diaminopropan-2-ol] | 40% | 0% | > 6810 mg/kg |  |  |
| CN(CC(O)CNC(=O)C1CC1)c1ccccc1 (stereo not shown) [Compound 4, N1-cyclopropylcarbonyl-N2-methyl-N2-phenyl-1,3-diaminopropan-2-ol] | 36% | 0% | > 1470 mg/kg |  |  |
| CN(CC(O)CNC(=O)C1CCCCC1)c1ccccc1 (stereo not shown) [Compound 5, N1-cyclohexylcarbonyl-N2-methyl-N2-phenyl-1,3-diaminopropan-2-ol] | 47% | 0% | 3200 mg/kg |  |  |
| CN(CC(O)CNC(=O)C1CCCCC1)c1ccc(F)cc1 (stereo not shown) [Compound 6, N1-cyclohexylcarbonyl-N2-methyl-N2-(4-fluorophenyl)-1,3-diaminopropan-2-ol] | 40% | 0% | > 1470 mg/kg |  |  |
| CCCN(CC(O)CNC(=O)C1CCCCC1)c1ccccc1 (stereo not shown) [Compound 7, N1-cyclohexylcarbonyl-N2-propyl-N2-phenyl-1,3-diaminopropan-2-ol] | 34% | 0% | > 1470 mg/kg |  |  |
| CN(CC(O)CNC(=O)Cc1ccccc1)c1ccc(Cl)cc1 (stereo not shown) [Compound 8, N1-phenacetyl-N2-methyl-N2-(4-chlorophenyl)-1,3-diaminopropan-2-ol] |  | 0% | 3860 mg/kg | 26% |  |
| CN(CC(O)CNC(=O)C=Cc1ccccc1)c1ccc(Cl)cc1 (stereo not shown) [Compound 9, N1-cinnamoyl-N2-methyl-N2-(4-chlorophenyl)-1,3-diaminopropan-2-ol] |  | 0% | > 6810 mg/kg |  | inhibition in vivo at 68 mg/kg [1, 5]: 32% |
| COc1ccc(C=CC(=O)NCC(O)CN(C)c2ccc(Cl)cc2)cc1OC (stereo not shown) [Compound 10, N1-(3,4-dimethoxycinnamoyl)-N2-methyl-N2-(4-chlorophenyl)-1,3-diaminopropan-2-ol] |  | 0% | > 6810 mg/kg | 32% |  |
| CN(CC(O)CNC(=O)c1ccccn1)c1ccc(Cl)cc1 (stereo not shown) [Compound 11, N1-picolinoyl-N2-methyl-N2-(4-chlorophenyl)-1,3-diaminopropan-2-ol] |  | 0% | 3300 mg/kg |  | inhibition in vivo at 68 mg/kg [1, 5]: 71% |
| CN(CC(O)CNC(=O)c1ccco1)c1ccc(Cl)c(Cl)c1 (stereo not shown) [Compound 12, N1-furoyl-N2-methyl-N2-(3,4-dichlorophenyl)-1,3-diaminopropan-2-ol] |  | 0% | > 1470 mg/kg | 29% |  |
| COCCN(CC(O)CNC(=O)c1ccco1)c1ccc(Cl)cc1 (stereo not shown) [Compound 13, N1-furoyl-N2-methoxyethyl-N2-(4-chlorophenyl)-1,3-diaminopropan-2-ol] |  | 0% | > 1470 mg/kg | 35% |  |
| COc1ccc(C(=O)NCC(O)CNc2ccccc2Cl)cc1OC (stereo not shown) [Compound 14, N1-(3,4-dimethoxybenzoyl)-N2-(2-chlorophenyl)-1,3-diaminopropan-2-ol] |  | 0% | > 6700 mg/kg | 33% |  |
| COc1ccc(C(=O)NCC(O)CN(C)c2ccc(F)cc2)cc1OC (stereo not shown) [Compound 15, N1-(3,4-dimethoxybenzoyl)-N2-methyl-N2-(4-fluorophenyl)-1,3-diaminopropan-2-ol] |  | 0% | > 6810 mg/kg | 32% |  |
| COc1ccc(C(=O)NCC(O)CN(C)c2ccc(Cl)c(Cl)c2)cc1OC (stereo not shown) [Compound 16, N1-(3,4-dimethoxybenzoyl)-N2-methyl-N2-(3,4-dichlorophenyl)-1,3-diaminopropan-2-ol] |  | 0% | > 6810 mg/kg | 38% |  |
| CCCN(CC(O)CNC(=O)c1ccc(OC)c(OC)c1)c1ccc(Cl)cc1 (stereo not shown) [Compound 17, N1-(3,4-dimethoxybenzoyl)-N2-propyl-N2-(4-chlorophenyl)-1,3-diaminopropan-2-ol] |  | 0% | > 6810 mg/kg | 34% |  |
| CN(CC(O)CNC(=O)c1ccccc1F)c1ccc(Cl)c(Cl)c1 (stereo not shown) [Compound 18, N1-(2-fluorobenzoyl)-N2-methyl-N2-(3,4-dichlorophenyl)-1,3-diaminopropan-2-ol] |  | 0% | > 1470 mg/kg | 33% |  |
| CC(C)c1ccc(N(C)CC(O)CNC(=O)c2ccco2)cc1 (stereo not shown) [Compound 19, N1-furoyl-N2-methyl-N2-(4-isopropylphenyl)-1,3-diaminopropan-2-ol] |  | 0% | > 1470 mg/kg | 31% |  |
